Results: article PMC9150124, “Design of a Potent, Selective, and Brain-Penetrant Inhibitor of Wnt-Deactivating Enzyme Notum by Optimization of a Crystallographic Fragment Hit” (Journal of Medicinal Chemistry, 2022)

Experiments:
Assay in all cases: SelectScreen kinase profiling, SSBK ZLyte SP Technology
Format in all cases: biochemical
[1] = molecular target: kinase named in conditions (Homo sapiens, UniProt Q8N752); conditions: CSNK1A1L, 10 μM
Procedure: (§1) Kinase selectivity screening was performed by Thermo Fisher Scientific (Paisley, U.K.) in their SelectScreen Biochemical Kinase Profiling Service. Assay information and data are presented in the Supporting Information.
(§2) Kinase selectivity screening was performed by ThermoFisher Scientific (Paisley, U.K.) in their SelectScreenTM
(§3) Biochemical Kinase Profiling service .

[2] = molecular target: kinase named in conditions (Homo sapiens, UniProt P78362); conditions: SRPK2, 10 μM
Procedure: as §1, §2, §3

[3] = molecular target: kinase named in conditions (Homo sapiens, UniProt P42679); conditions: MATK (HYL), 10 μM
Chain of kinase named in conditions (Homo sapiens, UniProt P42679) (P42679 whole entry): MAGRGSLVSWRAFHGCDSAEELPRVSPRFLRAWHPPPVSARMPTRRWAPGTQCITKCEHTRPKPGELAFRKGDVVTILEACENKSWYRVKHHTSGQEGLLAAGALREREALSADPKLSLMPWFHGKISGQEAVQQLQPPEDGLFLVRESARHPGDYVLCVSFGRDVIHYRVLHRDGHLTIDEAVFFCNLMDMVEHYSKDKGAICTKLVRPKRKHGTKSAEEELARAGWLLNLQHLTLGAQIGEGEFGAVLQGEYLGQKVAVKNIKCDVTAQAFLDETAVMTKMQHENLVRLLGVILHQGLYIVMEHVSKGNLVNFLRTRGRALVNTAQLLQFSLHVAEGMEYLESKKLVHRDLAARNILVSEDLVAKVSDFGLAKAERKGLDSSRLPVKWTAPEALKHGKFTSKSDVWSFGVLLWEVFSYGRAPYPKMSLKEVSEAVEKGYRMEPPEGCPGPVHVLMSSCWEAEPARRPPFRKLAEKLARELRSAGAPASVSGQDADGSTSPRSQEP
Procedure: as §1, §2, §3

[4] = molecular target: kinase named in conditions (Homo sapiens, UniProt Q9BXA7); conditions: STK22D (TSSK1), 10 μM
Procedure: as §1, §2, §3

[5] = molecular target: kinase named in conditions (Homo sapiens, UniProt Q13237); conditions: PRKG2 (PKG2), 10 μM
Procedure: as §1, §2, §3

[6] = molecular target: kinase named in conditions (Homo sapiens, UniProt Q07002); conditions: CDK18/cyclin Y, 10 μM
Procedure: as §1, §2, §3

[7] = molecular target: kinase named in conditions (Homo sapiens, UniProt O15530)
Chain of kinase named in conditions (Homo sapiens, UniProt O15530) (O15530 whole entry): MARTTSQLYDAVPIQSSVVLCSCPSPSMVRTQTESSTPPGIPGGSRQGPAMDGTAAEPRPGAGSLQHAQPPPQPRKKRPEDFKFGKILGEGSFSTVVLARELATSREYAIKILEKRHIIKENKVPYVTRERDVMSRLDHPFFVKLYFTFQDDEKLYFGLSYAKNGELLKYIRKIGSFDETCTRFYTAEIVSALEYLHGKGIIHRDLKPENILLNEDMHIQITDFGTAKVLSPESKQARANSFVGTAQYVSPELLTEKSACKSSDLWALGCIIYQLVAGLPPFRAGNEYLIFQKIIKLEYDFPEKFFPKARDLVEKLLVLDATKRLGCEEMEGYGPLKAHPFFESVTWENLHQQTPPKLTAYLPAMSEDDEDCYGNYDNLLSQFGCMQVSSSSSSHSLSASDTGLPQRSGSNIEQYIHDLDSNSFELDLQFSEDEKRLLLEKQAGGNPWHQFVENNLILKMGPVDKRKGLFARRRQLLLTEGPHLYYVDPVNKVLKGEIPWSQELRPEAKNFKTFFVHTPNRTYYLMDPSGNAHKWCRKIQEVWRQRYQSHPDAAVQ
Procedure: as §1, §2, §3

[8] = molecular target: kinase named in conditions (Homo sapiens, UniProt P29322); conditions: EPHA8, 10 μM
Procedure: as §1, §2, §3

[9] = molecular target: kinase named in conditions (Homo sapiens, UniProt P00519, Y253F); conditions: ABL1 Y253F, 10 μM
Procedure: as §1, §2, §3

[10] = molecular target: kinase named in conditions (Homo sapiens, UniProt P31749); conditions: AKT1 (PKB alpha), 10 μM
Procedure: as §1, §2, §3

[11] = molecular target: kinase named in conditions (Homo sapiens, UniProt O14920); conditions: IKBKB (IKK beta), 10 μM
Procedure: as §1, §2, §3

[12] = molecular target: kinase named in conditions (Homo sapiens, UniProt Q9BUB5); conditions: MKNK1 (MNK1), 10 μM
Procedure: as §1, §2, §3

[13] = molecular target: kinase named in conditions (Homo sapiens, UniProt O15075); conditions: DCAMKL1 (DCLK1), 10 μM
Procedure: as §1, §2, §3

[14] = molecular target: kinase named in conditions (Homo sapiens, UniProt P53779); conditions: MAPK10 (JNK3), 10 μM
Procedure: as §1, §2, §3

[15] = molecular target: kinase named in conditions (Homo sapiens, UniProt P35626); conditions: ADRBK2 (GRK3), 10 μM
Procedure: as §1, §2, §3

[16] = molecular target: kinase named in conditions (Homo sapiens, UniProt P08922); conditions: ROS1, 10 μM
Procedure: as §1, §2, §3

[17] = molecular target: kinase named in conditions (Homo sapiens, UniProt P16234, T674I); conditions: PDGFRA T674I, 10 μM
Procedure: as §1, §2, §3

[18] = molecular target: kinase named in conditions (Homo sapiens, UniProt Q13554); conditions: CAMK2B (CaMKII beta), 10 μM
Procedure: as §1, §2, §3

[19] = molecular target: kinase named in conditions (Homo sapiens, UniProt P49840); conditions: GSK3A (GSK3 alpha), 10 μM
Chain of kinase named in conditions (Homo sapiens, UniProt P49840) (P49840 whole entry): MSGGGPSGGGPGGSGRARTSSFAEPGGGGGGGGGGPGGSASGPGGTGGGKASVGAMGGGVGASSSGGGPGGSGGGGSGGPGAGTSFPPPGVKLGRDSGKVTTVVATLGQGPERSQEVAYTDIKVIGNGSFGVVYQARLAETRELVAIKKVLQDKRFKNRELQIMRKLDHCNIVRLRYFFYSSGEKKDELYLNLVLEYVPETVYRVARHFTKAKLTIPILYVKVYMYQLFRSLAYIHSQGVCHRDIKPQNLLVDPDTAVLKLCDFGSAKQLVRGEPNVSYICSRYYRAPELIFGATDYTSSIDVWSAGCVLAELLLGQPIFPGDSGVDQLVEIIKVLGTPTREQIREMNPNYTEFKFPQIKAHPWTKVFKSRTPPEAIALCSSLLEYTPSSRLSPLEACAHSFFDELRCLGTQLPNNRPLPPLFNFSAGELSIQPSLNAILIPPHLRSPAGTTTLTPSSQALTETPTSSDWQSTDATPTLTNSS
Procedure: as §1, §2, §3

[20] = molecular target: kinase named in conditions (Homo sapiens, UniProt Q9NQU5); conditions: PAK6, 10 μM
Procedure: as §1, §2, §3

[21] = molecular target: kinase named in conditions (Homo sapiens, UniProt Q14289); conditions: PTK2B (FAK2), 10 μM
Chain of kinase named in conditions (Homo sapiens, UniProt Q14289) (Q14289 whole entry): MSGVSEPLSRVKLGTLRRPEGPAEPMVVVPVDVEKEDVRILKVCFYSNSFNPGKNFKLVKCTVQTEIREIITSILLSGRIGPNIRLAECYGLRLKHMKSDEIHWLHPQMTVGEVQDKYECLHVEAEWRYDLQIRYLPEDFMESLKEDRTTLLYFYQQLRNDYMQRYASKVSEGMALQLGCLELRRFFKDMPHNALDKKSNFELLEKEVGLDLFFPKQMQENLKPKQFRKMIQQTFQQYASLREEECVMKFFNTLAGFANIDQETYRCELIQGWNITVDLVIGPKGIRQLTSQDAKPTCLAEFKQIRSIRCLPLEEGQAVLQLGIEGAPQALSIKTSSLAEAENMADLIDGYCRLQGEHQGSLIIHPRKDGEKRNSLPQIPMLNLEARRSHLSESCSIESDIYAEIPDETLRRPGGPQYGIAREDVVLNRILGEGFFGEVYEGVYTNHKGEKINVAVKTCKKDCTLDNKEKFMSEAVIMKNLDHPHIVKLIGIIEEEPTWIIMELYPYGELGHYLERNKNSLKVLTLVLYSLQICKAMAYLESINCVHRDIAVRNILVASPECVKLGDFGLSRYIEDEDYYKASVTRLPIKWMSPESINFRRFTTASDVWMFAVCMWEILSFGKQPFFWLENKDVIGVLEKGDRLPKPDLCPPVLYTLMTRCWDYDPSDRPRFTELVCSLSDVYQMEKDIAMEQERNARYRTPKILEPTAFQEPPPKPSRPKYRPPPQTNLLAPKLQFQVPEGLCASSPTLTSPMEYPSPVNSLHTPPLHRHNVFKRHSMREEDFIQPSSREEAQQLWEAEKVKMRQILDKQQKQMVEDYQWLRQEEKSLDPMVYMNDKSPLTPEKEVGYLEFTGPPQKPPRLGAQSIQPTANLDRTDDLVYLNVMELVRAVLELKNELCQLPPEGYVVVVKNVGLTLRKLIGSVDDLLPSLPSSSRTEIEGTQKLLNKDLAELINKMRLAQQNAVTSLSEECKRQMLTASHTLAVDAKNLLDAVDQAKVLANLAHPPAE
Procedure: as §1, §2, §3

[22] = molecular target: kinase named in conditions (Homo sapiens, UniProt P06239); conditions: LCK, 10 μM
Procedure: as §1, §2, §3

[23] = molecular target: kinase named in conditions (Homo sapiens, UniProt P53350); conditions: PLK1, 10 μM
Procedure: as §1, §2, §3

[24] = molecular target: kinase named in conditions (Homo sapiens, UniProt P54753); conditions: EPHB3, 10 μM
Procedure: as §1, §2, §3

[25] = molecular target: kinase named in conditions (Homo sapiens, UniProt P07949); conditions: RET, 10 μM
Procedure: as §1, §2, §3

[26] = molecular target: kinase named in conditions (Homo sapiens, UniProt P10721, V559D); conditions: KIT V559D, 10 μM
Procedure: as §1, §2, §3

[27] = molecular target: kinase named in conditions (Homo sapiens, UniProt Q9HBY8); conditions: SGK2, 10 μM
Procedure: as §1, §2, §3

[28] = molecular target: kinase named in conditions (Homo sapiens, UniProt P29597); conditions: TYK2, 10 μM
Chain of kinase named in conditions (Homo sapiens, UniProt P29597) (P29597 whole entry): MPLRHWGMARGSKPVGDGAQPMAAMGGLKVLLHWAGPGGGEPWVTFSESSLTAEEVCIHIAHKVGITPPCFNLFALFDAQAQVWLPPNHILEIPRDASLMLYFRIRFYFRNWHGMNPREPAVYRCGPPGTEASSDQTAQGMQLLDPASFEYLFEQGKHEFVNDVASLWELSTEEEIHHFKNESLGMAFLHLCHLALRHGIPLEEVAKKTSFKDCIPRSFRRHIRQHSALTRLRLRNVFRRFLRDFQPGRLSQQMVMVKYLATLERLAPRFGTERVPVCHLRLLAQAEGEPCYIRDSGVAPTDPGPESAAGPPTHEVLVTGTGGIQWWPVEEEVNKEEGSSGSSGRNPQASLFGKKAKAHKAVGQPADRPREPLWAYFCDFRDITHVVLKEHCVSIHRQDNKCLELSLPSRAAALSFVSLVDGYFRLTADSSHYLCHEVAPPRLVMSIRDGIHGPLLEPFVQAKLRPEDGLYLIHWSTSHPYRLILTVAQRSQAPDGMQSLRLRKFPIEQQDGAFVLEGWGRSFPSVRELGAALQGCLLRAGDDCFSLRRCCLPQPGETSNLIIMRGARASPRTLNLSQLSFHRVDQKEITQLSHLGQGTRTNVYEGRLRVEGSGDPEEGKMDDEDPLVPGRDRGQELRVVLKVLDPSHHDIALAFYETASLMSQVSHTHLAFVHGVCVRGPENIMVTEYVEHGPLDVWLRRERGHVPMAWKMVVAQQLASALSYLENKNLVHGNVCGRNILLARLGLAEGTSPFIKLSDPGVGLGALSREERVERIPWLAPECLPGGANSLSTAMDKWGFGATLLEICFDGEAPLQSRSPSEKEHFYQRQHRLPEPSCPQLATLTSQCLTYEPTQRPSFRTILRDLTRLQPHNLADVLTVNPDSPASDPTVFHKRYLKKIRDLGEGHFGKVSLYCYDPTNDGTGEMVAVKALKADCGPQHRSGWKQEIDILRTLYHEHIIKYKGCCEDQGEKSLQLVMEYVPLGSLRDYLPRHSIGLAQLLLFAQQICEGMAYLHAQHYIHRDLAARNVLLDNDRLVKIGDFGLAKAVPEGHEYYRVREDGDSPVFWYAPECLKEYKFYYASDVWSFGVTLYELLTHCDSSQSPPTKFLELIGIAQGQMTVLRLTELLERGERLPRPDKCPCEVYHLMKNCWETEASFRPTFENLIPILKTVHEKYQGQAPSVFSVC
Procedure: as §1, §2, §3

[29] = molecular target: kinase named in conditions (Homo sapiens, UniProt Q96L34); conditions: MARK4, 10 μM
Procedure: as §1, §2, §3

[30] = molecular target: kinase named in conditions (Homo sapiens, UniProt Q04759); conditions: PRKCQ (PKC theta), 10 μM
Chain of kinase named in conditions (Homo sapiens, UniProt Q04759) (Q04759 whole entry): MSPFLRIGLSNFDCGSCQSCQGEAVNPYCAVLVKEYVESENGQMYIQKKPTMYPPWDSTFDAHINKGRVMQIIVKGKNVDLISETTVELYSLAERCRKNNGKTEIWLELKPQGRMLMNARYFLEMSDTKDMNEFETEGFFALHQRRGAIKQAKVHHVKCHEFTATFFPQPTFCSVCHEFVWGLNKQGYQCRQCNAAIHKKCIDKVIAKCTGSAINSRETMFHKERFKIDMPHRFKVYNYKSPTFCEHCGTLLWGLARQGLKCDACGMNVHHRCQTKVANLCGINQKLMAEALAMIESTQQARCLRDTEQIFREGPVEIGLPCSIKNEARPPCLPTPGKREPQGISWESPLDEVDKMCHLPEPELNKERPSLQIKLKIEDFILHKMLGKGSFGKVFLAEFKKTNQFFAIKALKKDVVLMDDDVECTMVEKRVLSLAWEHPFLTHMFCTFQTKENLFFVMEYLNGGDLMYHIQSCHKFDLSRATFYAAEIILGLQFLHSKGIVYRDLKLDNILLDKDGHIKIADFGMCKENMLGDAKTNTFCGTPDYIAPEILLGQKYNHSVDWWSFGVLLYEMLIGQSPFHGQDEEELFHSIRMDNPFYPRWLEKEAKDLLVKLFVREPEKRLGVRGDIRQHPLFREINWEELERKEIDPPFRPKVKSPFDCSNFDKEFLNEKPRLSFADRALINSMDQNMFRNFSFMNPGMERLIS
Procedure: as §1, §2, §3

[31] = molecular target: kinase named in conditions (Homo sapiens, UniProt Q9HC98); conditions: NEK6, 10 μM
Procedure: as §1, §2, §3

[32] = molecular target: kinase named in conditions (Homo sapiens, UniProt P00533); conditions: EGFR (ErbB1), 10 μM
Procedure: as §1, §2, §3

[33] = molecular target: kinase named in conditions (Homo sapiens, UniProt P07949, A883F); conditions: RET A883F, 10 μM
Procedure: as §1, §2, §3

[34] = molecular target: kinase named in conditions (Homo sapiens, UniProt Q16288); conditions: NTRK3 (TRKC), 10 μM
Procedure: as §1, §2, §3

Chain of kinase named in conditions (Homo sapiens, UniProt Q8N752) (Q8N752 whole entry): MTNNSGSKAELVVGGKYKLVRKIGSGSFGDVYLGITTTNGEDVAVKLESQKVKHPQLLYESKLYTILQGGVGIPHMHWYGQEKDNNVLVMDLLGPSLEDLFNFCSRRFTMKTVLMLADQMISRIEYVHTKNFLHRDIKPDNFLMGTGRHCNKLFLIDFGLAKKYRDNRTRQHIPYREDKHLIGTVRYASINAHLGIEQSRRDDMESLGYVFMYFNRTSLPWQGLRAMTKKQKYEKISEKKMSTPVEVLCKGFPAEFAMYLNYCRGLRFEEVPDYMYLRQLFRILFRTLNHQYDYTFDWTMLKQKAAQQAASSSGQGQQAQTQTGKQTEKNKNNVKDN

Structure (SMILES): FC(F)(F)c1c(Cl)ccc(-n2ccnn2)c1Cl [8l, 1-(2,4-Dichloro-3-(trifluoromethyl)phenyl)-1H-1,2,3-triazole]
- inhibition at 10 µM [1]: -2%
- inhibition at 10 µM [2]: 7%
- inhibition at 10 µM [3]: -11%
- inhibition at 10 µM [4]: -5%
- inhibition at 10 µM [5]: 8%
- inhibition at 10 µM [6]: 4%
- inhibition at 10 µM ([7]; PDK1, 10 μM): 4%
- inhibition at 10 µM ([7]; PDK1 Direct, 10 μM): -2%
- inhibition at 10 µM [8]: 2%
- inhibition at 10 µM [9]: 13%
- inhibition at 10 µM [10]: 7%
- inhibition at 10 µM [11]: -1%
- inhibition at 10 µM [12]: 0%
- inhibition at 10 µM [13]: 3%
- inhibition at 10 µM [14]: -1%
- inhibition at 10 µM [15]: -1%
- inhibition at 10 µM [16]: 9%
- inhibition at 10 µM [17]: 4%
- inhibition at 10 µM [18]: 4%
- inhibition at 10 µM [19]: 7%
- inhibition at 10 µM [20]: 15%
- inhibition at 10 µM [21]: 7%
- inhibition at 10 µM [22]: 33%
- inhibition at 10 µM [23]: 13%
- inhibition at 10 µM [24]: -8%
- inhibition at 10 µM [25]: 7%
- inhibition at 10 µM [26]: -3%
- inhibition at 10 µM [27]: 4%
- inhibition at 10 µM [28]: 7%
- inhibition at 10 µM [29]: -2%
- inhibition at 10 µM [30]: -11%
- inhibition at 10 µM [31]: 12%
- inhibition at 10 µM [32]: 1%
- inhibition at 10 µM [33]: 10%
- inhibition at 10 µM [34]: 17%
